Experimental data taken from PMC10544018 (Journal of Medicinal Chemistry, 2023).

What was measured:
[1] = Log D7.4 measurement by chromatographic method; format: physicochemical; settings: experimental distribution coefficient at pH 7.4; read-out: e log D7.4
Protocol: (§1) Both were experimentally obtained employing HPLC-based protocols.[39],[40] […] PPB values were determined in view of how they could impact future pharmacokinetic studies of compounds as VHL inhibitors, or once conjugated into bifunctional PROTACs, for which PPB can be a limiting factor.
The determination of the log D7.4 values was performed by a chromatographic method as described previously.[41],[62] […] Subsequently, the mean retention times (n = 2) of the analytes were taken to calculate their log D7.4 values.

VCB protein = target: T1, VCB protein (Homo sapiens, UniProt P40337); assay: Competitive fluorescence polarization (FP) binding assay, displacement of FAM-labeled HIF-1α peptide; settings: for Kd: dissociation constant, determined by FP, mean ± S.E.M., back-calculated from IC50; for IC50: mean IC50 values obtained from the FP assay, read-out: IC50 ± S.E.M, FP assay
T1 construct: A plasmid containing pVHL54–213 with an N-terminal His6 tag; His6 (N, cleaved yes); made in house; host or cells: Escherichia coli BL21 (DE3)
Protocol: Binding of a ligand to the HIF binding site of VHL displaces a fluorescein-labeled, 19-mer HIF-1α oligopeptide, leading to a change in polarization of emitted light upon excitation of the competing fluorescent probe.
All components were dissolved from stock solutions using 100 mM Bis–Tris, 100 mM NaCl, 1 mM DTT, pH 7.0, to yield a final assay volume of 15 μL. DMSO was added as appropriate to ensure a final concentration of 2% (v/v). Control wells containing VCB and JC9 with no compound (zero displacement), or JC9, in the absence of protein (maximum displacement) were also included to allow for normalization. Percentage displacement values were obtained by normalization of controls and were plotted against log[compound]. The IC50 values were determined for each titration using non-linear regression analysis with Prism GraphPad (Table S1). Dissociation constants Kd for the compound–VCB interaction were back-calculated from the measured IC50 values by using a displacement binding model as described.[16],[64]

human serum albumin = human serum albumin (Homo sapiens, UniProt P02768); assay: PPB studies on HSA HPLC column; format: in vitro ADME; settings: CHIRALPAK HSA HPLC column (human serum albumin); experimentally determined percentage of the compound bound to human serum albumin
Protocol: as §1
PPB was estimated by correlating the logarithmic retention times of the analytes on a […] HSA 50 × 3 mm, 5 μm column with the literature-known % PPB values (converted into log K values) of the following drugs: warfarin, ketoprofen, budesonide, nizatidine, indomethacin, acetylsalicylic acid, carbamazepine, piroxicam, nicardipine, and cimetidine.[63] Samples were dissolved in MeCN/DMSO 9:1 to achieve a final concentration of 0.5 mg/mL. The mobile phase A was 50 mM ammonium acetate adjusted to pH 7.4 with 10% NaOH, while mobile phase B was iPrOH. […] After injecting 3 μL of the sample, a linear gradient from 100% A to 30% iPrOH in 5.4 min was applied. From 5.4 to 18 min, 30% iPrOH was kept, followed by switching back to 100% A in 1.0 min and a re-equilibration time of 6 min.

`Cc1cc(-c2scnc2C)ccc1CNC(=O)[C@@H]1C[C@@H](O)CN1C(=O)[C@@H](NC(=O)C1(C#N)CC1)C(C)(C)C` [Compound 2, (2S,4R)-1-((S)-2-(1-Cyanocyclopropane-1-carboxamido)-3,3-dimethylbutanoyl)-4-hydroxy-N-(2-methyl-4-(4-methylthiazol-5-yl)benzyl)pyrrolidine-2-carboxamide] gave a chromatographic logD [1] of 2, a Kd (VCB protein) of 149 ± 28 nM and an IC50 (VCB protein) of 668 ± 33 nM. The fraction unbound at 0.5 mg/mL (human serum albumin) was 0.1.
`COc1cc(-c2scnc2C)ccc1CNC(=O)[C@@H]1C[C@@H](O)CN1C(=O)[C@@H](NC(=O)C1(C#N)CC1)C(C)(C)C` [Compound 3, (2S,4R)-1-((S)-2-(1-Cyanocyclopropane-1-carboxamido)-3,3-dimethylbutanoyl)-4-hydroxy-N-(2-methoxy-4-(4-methylthiazol-5-yl)benzyl)pyrrolidine-2-carboxamide] showed a chromatographic logD [1] of 1.9, a Kd (VCB protein) of 183 ± 22 nM and an IC50 (VCB protein) of 837 ± 35 nM. For the same molecule, the fraction unbound at 0.5 mg/mL (human serum albumin) was 0.12.
For `Cc1ncsc1-c1ccc(CNC(=O)[C@@H]2C[C@@H](O)CN2C(=O)[C@@H](NC(=O)C2(C#N)CC2)C(C)(C)C)c(F)c1` [Compound 4, (2S,4R)-1-((S)-2-(1-Cyanocyclopropane-1-carboxamido)-3,3-dimethylbutanoyl)-N-(2-fluoro-4-(4-methylthiazol-5-yl)benzyl)-4-hydroxypyrrolidine-2-carboxamide], the chromatographic logD [1] was 1.9, the Kd (VCB protein) was 297 ± 34 nM and the IC50 (VCB protein) was 1360 ± 56 nM. For the same molecule, the fraction unbound at 0.5 mg/mL (human serum albumin) was 0.12.
For `Cc1ncsc1-c1ccc(CNC(=O)[C@@H]2C[C@@H](O)CN2C(=O)[C@@H](NC(=O)C2(C#N)CC2)C(C)(C)C)c(Cl)c1` [Compound 5, (2S,4R)-N-(2-Chloro-4-(4-methylthiazol-5-yl)benzyl)-1-((S)-2-(1-cyanocyclopropane-1-carboxamido)-3,3-dimethylbutanoyl)-4-hydroxypyrrolidine-2-carboxamide], the chromatographic logD [1] was 2.2, the Kd (VCB protein) was 245 ± 20 nM and the IC50 (VCB protein) was 1140 ± 131 nM. It also gave a fraction unbound at 0.5 mg/mL (human serum albumin) of 0.09.
Work on `Cc1cc(CNC(=O)[C@@H]2C[C@@H](O)CN2C(=O)[C@@H](NC(=O)C2(C#N)CC2)C(C)(C)C)ccc1-c1scnc1C` [Compound 6, (2S,4R)-1-((S)-2-(1-Cyanocyclopropane-1-carboxamido)-3,3-dimethylbutanoyl)-4-hydroxy-N-(3-methyl-4-(4-methylthiazol-5-yl)benzyl)pyrrolidine-2-carboxamide] yielded a chromatographic logD [1] of 2, a Kd (VCB protein) of 496 ± 62 nM and an IC50 (VCB protein) of 2260 ± 73 nM. It also gave a fraction unbound at 0.5 mg/mL (human serum albumin) of 0.11.
`COc1cc(CNC(=O)[C@@H]2C[C@@H](O)CN2C(=O)[C@@H](NC(=O)C2(C#N)CC2)C(C)(C)C)ccc1-c1scnc1C` [Compound 7, (2S,4R)-1-((S)-2-(1-Cyanocyclopropane-1-carboxamido)-3,3-dimethylbutanoyl)-4-hydroxy-N-(3-methoxy-4-(4-methylthiazol-5-yl)benzyl)pyrrolidine-2-carboxamide] gave a chromatographic logD [1] of 1.9, a Kd (VCB protein) of 163 ± 22 nM and an IC50 (VCB protein) of 742 ± 14 nM. The fraction unbound at 0.5 mg/mL (human serum albumin) was 0.13.
Molecule `Cc1ncsc1-c1ccc(CNC(=O)[C@@H]2C[C@@H](O)CN2C(=O)[C@@H](NC(=O)C2(C#N)CC2)C(C)(C)C)cc1F` [Compound 8, (2S,4R)-1-((S)-2-(1-Cyanocyclopropane-1-carboxamido)-3,3-dimethylbutanoyl)-N-(3-fluoro-4-(4-methylthiazol-5-yl)benzyl)-4-hydroxypyrrolidine-2-carboxamide] has a chromatographic logD [1] of 1.9, a Kd (VCB protein) of 97 ± 11 nM and an IC50 (VCB protein) of 444 ± 18 nM. For the same molecule, the fraction unbound at 0.5 mg/mL (human serum albumin) was 0.12.
Work on `Cc1ncsc1-c1ccc(CNC(=O)[C@@H]2C[C@@H](O)CN2C(=O)[C@@H](NC(=O)C2(C#N)CC2)C(C)(C)C)cc1Cl` [Compound 9, (2S,4R)-N-(3-Chloro-4-(4-methylthiazol-5-yl)benzyl)-1-((S)-2-(1-cyanocyclopropane-1-carboxamido)-3,3-dimethylbutanoyl)-4-hydroxypyrrolidine-2-carboxamide] yielded a chromatographic logD [1] of 2.1, a Kd (VCB protein) of 220 ± 11 nM and an IC50 (VCB protein) of 1030 ± 127 nM. For the same molecule, the fraction unbound at 0.5 mg/mL (human serum albumin) was 0.09.
`Cc1cc(-c2scnc2C)cc(C)c1CNC(=O)[C@@H]1C[C@@H](O)CN1C(=O)[C@@H](NC(=O)C1(C#N)CC1)C(C)(C)C` [Compound 10, (2S,4R)-1-((S)-2-(1-Cyanocyclopropane-1-carboxamido)-3,3-dimethylbutanoyl)-N-(2,6-dimethyl-4-(4-methylthiazol-5-yl)benzyl)-4-hydroxypyrrolidine-2-carboxamide] gave a chromatographic logD [1] of 2.2, a Kd (VCB protein) of 4110 ± 560 nM and an IC50 (VCB protein) of 21100 ± 2180 nM. For the same molecule, the fraction unbound at 0.5 mg/mL (human serum albumin) was 0.1.
`COc1cc(-c2scnc2C)cc(OC)c1CNC(=O)[C@@H]1C[C@@H](O)CN1C(=O)[C@@H](NC(=O)C1(C#N)CC1)C(C)(C)C` [Compound 11, (2S,4R)-1-((S)-2-(1-Cyanocyclopropane-1-carboxamido)-3,3-dimethylbutanoyl)-N-(2,6-dimethoxy-4-(4-methylthiazol-5-yl)benzyl)-4-hydroxypyrrolidine-2-carboxamide] gave a chromatographic logD [1] of 2, a Kd (VCB protein) of 6240 ± 620 nM and an IC50 (VCB protein) of 32100 ± 2150 nM. It also gave a fraction unbound at 0.5 mg/mL (human serum albumin) of 0.12.
For `Cc1ncsc1-c1cc(F)c(CNC(=O)[C@@H]2C[C@@H](O)CN2C(=O)[C@@H](NC(=O)C2(C#N)CC2)C(C)(C)C)c(F)c1` [Compound 12, (2S,4R)-1-((S)-2-(1-Cyanocyclopropane-1-carboxamido)-3,3-dimethylbutanoyl)-N-(2,6-difluoro-4-(4-methylthiazol-5-yl)benzyl)-4-hydroxypyrrolidine-2-carboxamide], the chromatographic logD [1] was 1.9, the Kd (VCB protein) was 2130 ± 150 nM and the IC50 (VCB protein) was 11000 ± 747 nM. It also gave a fraction unbound at 0.5 mg/mL (human serum albumin) of 0.14.
With `Cc1ncsc1-c1cc(Cl)c(CNC(=O)[C@@H]2C[C@@H](O)CN2C(=O)[C@@H](NC(=O)C2(C#N)CC2)C(C)(C)C)c(Cl)c1` [Compound 13, (2S,4R)-1-((S)-2-(1-Cyanocyclopropane-1-carboxamido)-3,3-dimethylbutanoyl)-N-(2,6-dichloro-4-(4-methylthiazol-5-yl)benzyl)-4-hydroxypyrrolidine-2-carboxamide] the chromatographic logD [1] was 2.4, the Kd (VCB protein) was 8150 ± 680 nM and the IC50 (VCB protein) was 42000 ± 1920 nM. The fraction unbound at 0.5 mg/mL (human serum albumin) was 0.09.
Work on `Cc1cc(-c2scnc2C)c(C)cc1CNC(=O)[C@@H]1C[C@@H](O)CN1C(=O)[C@@H](NC(=O)C1(C#N)CC1)C(C)(C)C` [Compound 14, (2S,4R)-1-((S)-2-(1-Cyanocyclopropane-1-carboxamido)-3,3-dimethylbutanoyl)-N-(2,5-dimethyl-4-(4-methylthiazol-5-yl)benzyl)-4-hydroxypyrrolidine-2-carboxamide] yielded a chromatographic logD [1] of 2.2, a Kd (VCB protein) of 528 ± 16 nM and an IC50 (VCB protein) of 2740 ± 122 nM. For the same molecule, the fraction unbound at 0.5 mg/mL (human serum albumin) was 0.1.
Work on `COc1c(CNC(=O)[C@@H]2C[C@@H](O)CN2C(=O)[C@@H](NC(=O)C2(C#N)CC2)C(C)(C)C)ccc(-c2scnc2C)c1F` [Compound 21, (2S,4R)-1-((S)-2-(1-Cyanocyclopropane-1-carboxamido)-3,3-dimethylbutanoyl)-N-(3-fluoro-2-methoxy-4-(4-methylthiazol-5-yl)benzyl)-4-hydroxypyrrolidine-2-carboxamide] yielded a chromatographic logD [1] of 2.1 and a fraction unbound at 0.5 mg/mL (human serum albumin) of 0.11.
With `Cc1ncsc1-c1cc2c(cc1F)[C@@H](NC(=O)[C@@H]1C[C@@H](O)CN1C(=O)[C@@H](NC(=O)C1(F)CC1)C(C)(C)C)CC2` [Compound 36, (2S,4R)-N-((S)-6-Fluoro-5-(4-methylthiazol-5-yl)-2,3-dihydro-1H-inden-1-yl)-1-((S)-2-(1-fluorocyclopropane-1-carboxamido)-3,3-dimethylbutanoyl)-4-hydroxypyrrolidine-2-carboxamide] the chromatographic logD [1] was 2.3, the Kd (VCB protein) was 2550 ± 510 nM and the IC50 (VCB protein) was 10600 ± 2030 nM.
With `Cc1ncsc1-c1ccc(CNC(=O)[C@@H]2C[C@@H](O)CN2C(=O)[C@@H](NC(=O)C2(F)CC2)C(C)(C)C)cc1` [Compound 38, (2S,4R)-1-((S)-2-(1-Fluorocyclopropane-1-carboxamido)-3,3-dimethylbutanoyl)-4-hydroxy-N-(4-(4-methylthiazol-5-yl)benzyl)pyrrolidine-2-carboxamide, reference compound] the chromatographic logD [1] was 1.8 and the fraction unbound at 0.5 mg/mL (human serum albumin) was 0.14.
